Experimental data as given in the NIST ThermoML archive (doi:10.1016/j.tca.2016.01.016).
Values joined by “and” are separate entries in the source; they are usually repeats but may differ in a detail not shown here. Equal entries are not always repeated.

Test: molar heat capacity at constant pressure
Conditions: 101.33 kPa, Crystal, Small sample (50 mg) DSC

O=P([O-])([O-])[O-].[Er+3] [erbium phosphate]
Conditions | molar heat capacity at constant pressure
348.15 K | 113.7 J/K/mol and 113.8 J/K/mol
353.15 K | 114.5 J/K/mol and 114.6 J/K/mol
358.15 K | 115.2 J/K/mol and 115.3 J/K/mol
363.15 K | 115.9 J/K/mol and 116.1 J/K/mol
368.15 K | 116.4 J/K/mol and 116.8 J/K/mol
373.15 K | 116.8 J/K/mol and 117.4 J/K/mol
378.15 K | 117.4 J/K/mol and 118.1 J/K/mol
383.15 K | 118.1 J/K/mol and 118.8 J/K/mol
388.15 K | 119.1 J/K/mol and 119.4 J/K/mol
393.15 K | 119.9 J/K/mol and 120 J/K/mol
398.15 K | 120.7 J/K/mol and 120.6 J/K/mol
403.15 K | 121.5 J/K/mol and 121.2 J/K/mol
408.15 K | 122.2 J/K/mol and 121.8 J/K/mol
413.15 K | 122.9 J/K/mol and 122.4 J/K/mol
418.15 K | 123.5 J/K/mol and 123 J/K/mol
423.15 K | 124 J/K/mol and 123.5 J/K/mol
428.15 K | 124.5 J/K/mol and 124.1 J/K/mol
433.15 K | 125 J/K/mol and 124.6 J/K/mol
438.15 K | 125.4 J/K/mol and 125.1 J/K/mol
443.15 K | 125.9 J/K/mol and 125.6 J/K/mol
448.15 K | 126.4 J/K/mol and 126.1 J/K/mol
453.15 K | 126.9 J/K/mol and 126.6 J/K/mol
458.15 K | 127.4 J/K/mol and 127.1 J/K/mol
463.15 K | 127.8 J/K/mol and 127.6 J/K/mol
468.15 K | 128.2 J/K/mol and 128 J/K/mol
473.15 K | 128.7 J/K/mol and 128.5 J/K/mol
478.15 K | 129.1 J/K/mol and 129 J/K/mol
483.15 K | 129.5 J/K/mol and 129.4 J/K/mol
488.15 K | 129.9 J/K/mol and 129.8 J/K/mol
493.15 K | 130.3 J/K/mol and 130.3 J/K/mol
498.15 K | 130.7 J/K/mol and 130.7 J/K/mol
503.15 K | 131.1 J/K/mol and 131.1 J/K/mol
508.15 K | 131.5 J/K/mol and 131.5 J/K/mol
513.15 K | 132 J/K/mol and 131.9 J/K/mol
518.15 K | 132.4 J/K/mol and 132.3 J/K/mol
523.15 K | 132.8 J/K/mol and 132.7 J/K/mol
528.15 K | 133.2 J/K/mol and 133.1 J/K/mol
533.15 K | 133.6 J/K/mol and 133.4 J/K/mol
538.15 K | 134 J/K/mol and 133.8 J/K/mol
543.15 K | 134.5 J/K/mol and 134.2 J/K/mol
548.15 K | 134.8 J/K/mol and 134.5 J/K/mol
553.15 K | 135.1 J/K/mol and 134.9 J/K/mol
558.15 K | 135.4 J/K/mol and 135.2 J/K/mol
563.15 K | 135.8 J/K/mol and 135.6 J/K/mol
568.15 K | 136.1 J/K/mol and 135.9 J/K/mol
573.15 K | 136.3 J/K/mol and 136.2 J/K/mol
578.15 K | 136.6 J/K/mol and 136.6 J/K/mol
583.15 K | 136.9 J/K/mol and 136.9 J/K/mol
588.15 K | 137.2 J/K/mol and 137.2 J/K/mol
593.15 K | 137.5 J/K/mol and 137.5 J/K/mol
598.15 K | 137.8 J/K/mol and 137.8 J/K/mol
603.15 K | 138 J/K/mol and 138.1 J/K/mol
608.15 K | 138.3 J/K/mol and 138.4 J/K/mol
613.15 K | 138.6 J/K/mol and 138.7 J/K/mol
618.15 K | 138.8 J/K/mol and 139 J/K/mol
623.15 K | 139 J/K/mol and 139.3 J/K/mol
628.15 K | 139.3 J/K/mol and 139.6 J/K/mol
633.15 K | 139.6 J/K/mol and 139.9 J/K/mol
638.15 K | 139.8 J/K/mol and 140.2 J/K/mol
643.15 K | 140.1 J/K/mol and 140.4 J/K/mol
648.15 K | 140.3 J/K/mol and 140.7 J/K/mol
653.15 K | 140.6 J/K/mol and 141 J/K/mol
658.15 K | 140.9 J/K/mol and 141.3 J/K/mol
663.15 K | 141.2 J/K/mol and 141.5 J/K/mol
668.15 K | 141.4 J/K/mol and 141.8 J/K/mol
673.15 K | 141.6 J/K/mol and 142 J/K/mol
678.15 K | 141.8 J/K/mol and 142.3 J/K/mol
683.15 K | 142.1 J/K/mol and 142.5 J/K/mol
688.15 K | 142.3 J/K/mol and 142.8 J/K/mol
693.15 K | 142.6 J/K/mol and 143 J/K/mol
698.15 K | 142.9 J/K/mol and 143.3 J/K/mol
703.15 K | 143.1 J/K/mol and 143.5 J/K/mol
708.15 K | 143.5 J/K/mol and 143.8 J/K/mol
713.15 K | 143.7 J/K/mol and 144 J/K/mol
718.15 K | 143.9 J/K/mol and 144.2 J/K/mol
723.15 K | 144.2 J/K/mol and 144.4 J/K/mol
728.15 K | 144.4 J/K/mol and 144.7 J/K/mol
733.15 K | 144.6 J/K/mol and 144.9 J/K/mol
738.15 K | 144.8 J/K/mol and 145.1 J/K/mol
743.15 K | 145 J/K/mol and 145.3 J/K/mol
748.15 K | 145.2 J/K/mol and 145.6 J/K/mol
753.15 K | 145.5 J/K/mol and 145.8 J/K/mol
758.15 K | 145.8 J/K/mol and 146 J/K/mol
763.15 K | 146.1 J/K/mol and 146.2 J/K/mol
768.15 K | 146.3 J/K/mol and 146.4 J/K/mol
773.15 K | 146.5 J/K/mol and 146.6 J/K/mol
778.15 K | 146.8 J/K/mol and 146.8 J/K/mol
783.15 K | 147 J/K/mol and 147 J/K/mol
788.15 K | 147.2 J/K/mol and 147.2 J/K/mol
793.15 K | 147.5 J/K/mol and 147.4 J/K/mol
798.15 K | 147.8 J/K/mol and 147.6 J/K/mol
803.15 K | 148 J/K/mol and 147.8 J/K/mol
808.15 K | 148.2 J/K/mol and 148 J/K/mol
813.15 K | 148.5 J/K/mol and 148.2 J/K/mol
818.15 K | 148.7 J/K/mol and 148.4 J/K/mol
823.15 K | 148.9 J/K/mol and 148.5 J/K/mol
828.15 K | 149.1 J/K/mol and 148.7 J/K/mol
833.15 K | 149.3 J/K/mol and 148.9 J/K/mol
838.15 K | 149.5 J/K/mol and 149.1 J/K/mol
843.15 K | 149.7 J/K/mol and 149.3 J/K/mol
848.15 K | 149.9 J/K/mol and 149.5 J/K/mol
853.15 K | 150.2 J/K/mol and 149.6 J/K/mol
858.15 K | 150.3 J/K/mol and 149.8 J/K/mol
863.15 K | 150.5 J/K/mol and 150 J/K/mol
868.15 K | 150.8 J/K/mol and 150.1 J/K/mol
